Assay results taken from paper PMC11488100, “PET imaging of CXCR4 expression using [^18F]AlF-NOTA-QHY-04 for hematologic malignancy and solid tumors” (Theranostics, 2024).
Bridge positions count the residues as written; N and C are the ends. Square brackets hold non-standard residues; d marks the D form. Peptide text beside a SMILES is read from it. * marks the point of attachment. NOTA = O=C(O)CN1CCN(CC(=O)O)CCN(CC(=O)*)CC1; 2Nal = N[C@@H](Cc1ccc2ccccc2c1)C(=O)O; Pen = CC(C)(S)[C@H](N)C(=O)O; 4Amb = NCc1ccc(C(=O)O)cc1; Ahx = NCCCCCC(=O)O

Legend:
[1] = target: T1, recombinant CXCR4 protein (Homo sapiens, UniProt P61073); experiment: Biolayer interferometry (BLI) binding assay; details: BLI Octet Red96, biotinylated CXCR4 on SSA biosensors, 30 °C, HBS-P buffer pH 7.4, 0.0313-1 μM, 1:1 binding model, global fit
T1 construct: purchased Novoprotein C16M
T1 sequence (P61073 1-39 limits assumed): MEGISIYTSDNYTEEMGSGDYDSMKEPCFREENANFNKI
Procedure: The in vitro and in vivo stability of [^18F]AlF-NOTA-QHY-04 were evaluated by radio-HPLC to examine the RCP after different incubation periods. The binding affinity of the unlabeled precursor to CXCR4 was measured using the biolayer interferometry Octet Red96 system (PALL ForteBio, USA). The details are supplied in the supplemental materials. […]
human serum albumin solution were evaluated by radio-HPLC to examine the radiochemical purity after different incubation periods. For the saline study, 200 μL of [18F]AlF-NOTA-QHY-04 (0.74–3.70 MBq) was incubated at 37°C with 800 μL of saline for 1 h, 3 h and 6 h respectively, and then directly evaluated by radio -HPLC. […] Finally, the supernatant was collected and passed through a 0.22 μm membrane filter (Millipore, USA) and analyzed by radio-HPLC. […]
The processed blood supernatants and diluted urine samples were collected and passed through a 0.22 μm membrane filter (Millipore, USA) and analyzed by radio-HPLC. […]
and 1 μM NOTA-QHY-04 sample) was prepared and flowed. […] Prior to fitting, the data were baseline-subtracted and analyzed using a 1:1 binding model and the ForteBio data analysis software. Mean Kd value was determined by applying a global fit to all the data. […]

[2] = [18F]FDG PET/CT imaging in cancer patients; assay type: in vivo, human
Excerpt: Potential eligible patients with newly diagnosed tumor were recruited from Shandong Cancer Hospital and institute from November 2022 to December 2023. A total of 55 patients including 8 tumor types were represented in this study (diffuse large B-cell lymphoma (DLBCL), n = 6; SCLC, n = 30; non-small cell lung cancer (NSCLC), n = 4; triple-negative breast cancer (TNBC), n = 3; pancreatic carcinoma, n = 3; glioma, n = 7; hepatocellular carcinoma (HCC), n = 1; and colorectal carcinoma (CRC), n = 1). The [^18F]AlF-NOTA-QHY-04 imaging study in patients was approved by the Institutional Review Board of Shandong Cancer Hospital and Institute (no. SDZLEC2023-256-02), and the patients provided their informed consent before inclusion in this study. In this prospective observational study, [^18F]AlF-NOTA-QHY-04 PET/CT scans should not affect the normal process of routine examinations and treatment as usual. Patients were enrolled according to the following criteria: (1) newly diagnosed cancer patients with visible tumors on conventional imaging; (2) histopathologically confirmed diagnosis; (3) age ≥ 18 years; (4) Eastern Cooperative Oncology Group (ECOG) performance status score of 0-2; (5) no prior cancer-directed therapy; (6) ability to undergo [^18F]AlF-NOTA-QHY-04 PET/CT scanning before treatment initiation. Specifically, regarding histological confirmation, we followed the standard clinical practice guidelines for each type of cancer [21]-[26], and provided detailed descriptions of our approach for obtaining histological evidence in the supplemental materials. All patients included in this study were treatment-naïve at the time of [^18F]AlF-NOTA-QHY-04 PET/CT imaging, to ensure that CXCR4 expression levels were not altered by treatments. PET/CT scans were performed within one week of pathological confirmation and carefully coordinated with the patient's clinical teams to avoid any delays in the initiation of treatment. Seven patients from them also underwent [^18F]FDG PET/CT scan. These patients fasted for at least 6 hours before [^18F]FDG PET/CT imaging. The methods for PET/CT scanning and image analysis were the same as previously reported, and detailed in the supplemental materials.
pathologists following standard diagnostic criteria, including routine H&E staining and
relevant immunohistochemical analyses. Histological confirmation was completed before
patients underwent [18F]AlF-NOTA-QHY-04 PET/CT imaging to ensure an accurate
correlation between imaging findings and tumor characteristics.
All the PET/CT scans in patients were acquired through an integrated in -line PET/CT
system (GEMINI TF Big Bore, Philips Healthcare, USA) at 60 min after intravenous
administration of 4.81 MBq/kg [18F]AlF-NOTA-QHY-04 or [18F]FDG. The
medical information system (Beijing Mozi Healthcare Technology Co., Ltd., Beijing,
China). ROIs were drawn on the transaxial images , and the maximum, mean, and peak
standard uptake value (SUV max, SUVmean, SUVpeak) were calculated automatically and used
for measuring the uptake of [18F]AlF-NOTA-QHY-04 by malignant tissues. In PET imaging
of brain tumors, T/N (tumor-to-normal brain ratio) was calculated according to the ratio of
SUVmax of tumor to SUVmean of the contralateral normal brain tissue. Two experienced
nuclear medicine physicians unaware of the patients’ clinical history analyzed the PET/CT
data first independently and then in consensus . […]
For mIF staining, the FFPE sections were baked for 2 h at 60 °C and then
deparaffinized with xylene and rehydrated through decreasing gradient ethanol. Antigen
retrieval was performed in AR6 buffer (Akoya Biosciences) in a microwave oven for 15

[3] = 10 lesions of DLBCL patient No. 32

Row | Kd [1] [nM] | SUVmax [2, 3] | SUVmean [2, 3] | average T/N (tumor-to-normal brain ratio) ([2]; SUVmax of tumor / SUVmean of contralateral normal brain, three PCNS DLBCL and one low-grade glioma patient) | SUVmax ([2]; bone metastasis of NSCLC patient No. 35) | SUVmax ([2]; inguinal lymph node of DLBCL patient No. 32) | SUVmax ([2]; lymph node metastasis of NSCLC patient No. 35) | SUVmax ([2]; primary lesion of NSCLC patient No. 35) | average SUVmax ([2]; three PCNS DLBCL patients and one low-grade glioma patient imaged with both tracers) | Compound
1 | 55.2 ± 11.3 |  |  |  |  |  |  |  |  | C[C@H](NC(=O)[C@H](CCCNC(=N)N)NC(=O)CCCCCNC(=O)c1ccc(CNC(=O)CN2CCN(CC(=O)O)CCN(CC(=O)O)CC2)cc1)C(=O)N[C@@H]1CSSC(C)(C)[C@@H](C(=O)O)NC(=O)[C@H](Cc2c[nH]cn2)NC(=O)[C@H](Cc2ccc3ccccc3c2)NC(=O)[C@H](CCCNC(=N)N)NC1=O [NOTA-QHY-04] ({NOTA-4Amb-Ahx}-RA[dC]R[2Nal]H[Pen]-OH; disulfide 3-7)
2 |  | 8.00 ± 4.57 | 4.39 ± 2.36 | 1.70 ± 0.25 | 4.1 | 2.17 | 4.26 | 5.23 | 12.12 ± 2.03 | OC[C@H]1OC(O)[C@H]([18F])[C@@H](O)[C@@H]1O (stereo partly shown) [[^18F]FDG]
3 | 41.3 ± 5.5 |  |  |  |  |  |  |  |  | C[C@H](NC(=O)[C@H](CCCNC(=N)N)NC(=O)CCCCCNC(=O)c1ccc(CNC(=O)CN2CCN(CC(=O)O)CCN(CC(=O)O)CC2)cc1)C(=O)N[C@@H]1CSSC(C)(C)[C@@H](C(=O)O)NC(=O)[C@H](Cc2c[nH]cn2)NC(=O)[C@H](Cc2ccc3ccccc3c2)NC(=O)[C@H](CCCNC(=N)N)NC1=O [[^natF]AlF-NOTA-QHY-04] ({NOTA-4Amb-Ahx}-RA[dC]R[2Nal]H[Pen]-OH; disulfide 3-7)
